Data reported in patent US6387411B2, “Method for producing dispersible sterol and stanol compounds” (McNeil-PPC, Inc., priority 1998, dated 2002).

Experiments:
[1] = Wetting and time to disperse of powdered matrix in unstirred water; format: physicochemical; conditions: similar conditions to Example 5 (200 mg in 250 ml water); up to three days vigorous stirring
Text: Another technique for measuring the crystallinity of the solid matrix is to measure the time in which a ground powdered sample of the solid takes to disperse in unstirred water. When an appropriate amount of the appropriate hydrocarbon material has been added, […], preferably in less than about 45 seconds and most preferably less than about 30 seconds. Agitation, including mild agitation such as a stirring bar, can be employed to enhance the dissolution of the solid solution in water.
Additional sitosterol/docusate sodium matrices were prepared and added to water.

[2] = Turbidity of ground sterol/docusate sodium matrix shaken in water; format: physicochemical; conditions: shaken 30 seconds in 25 milliliter deionized water; for Turbidity, Series 2: measured after standing 20 minutes; for Turbidity, Series 1: measured after standing one minute
Procedure: Yet another method to determine whether the desired level of hydrocarbon has been added to the sterol/stanol, is to measure the turbidity of the solution after 100 milligrams of the ground sterol/stanol/hydrocarbon are added to water. The greater turbidity value, the more effectively the solid solution is able to be dispersed in water. […] Preferred turbidity levels are greater than about 1500, preferably greater than 2000 and most preferably greater than 3000 Nephelometric Turbidity Units (NTU). As used herein turbidity is understood to be the same as defined by the United States Pharmacopeia, 15th Edition, the light scattering effect of suspended particles and turbidity as the measure of the decrease in the incident beam intensity per unit length of a given suspension. The range of turbidty values is from 0 to 20,000 NTU. As a point of reference the turbidity of water is zero. The turbidity of the samples is measured at room temperature.
A docusate sodium/β-sitosterol matrix was prepared. The sample was shaken for 30 seconds in a vial containing 25 milliliter deionized water. In Series 1, turbidity measurements were taken after allowing the shaken sample to stand one minute. In Series 2, measurements were made after standing for 20 minutes.

SMILES | Wetting in water [1] | Turbidity, Series 2 [2] [NTU] | Turbidity, Series 1 [2] [NTU]
CC[C@H](CC[C@@H](C)[C@H]1CC[C@H]2[C@@H]3CC=C4C[C@@H](O)CC[C@]4(C)[C@H]3CC[C@]12C)C(C)C [100% sterol, β-sitosterol] | does not wet at all | 523 | 1301
CCCCC(CC)COC(=O)CC(C(=O)OCC(CC)CCCC)S(=O)(=O)[O-].[Na+] (centres unmarked) [100% docusate sodium, docusate sodium] | – | 0.441 | 1.22
